From ChEMBL document CHEMBL1201862, “PubChem BioAssay data set” (2004)
Activity calls are given as the source filed them. Cut-off read from the data, not from the text of the source, for most assays here: actives have a measured EC50 and inactives only a lower limit.

Experiments:
[1] = Luminescence Cell-Based Dose Confirmation HTS to Identify Activators of 5'UTR Stem-Loop Driven Alpha-Synuclein mRNA Translation in H4 Neuroglioblastoma Cells. [Related pubchem assays: 1829 (Project Summary), 1814 (Primary HTS)]; type: functional
[2] = system: H4; test: Luminescence Cell-Based Dose Response HTS to Identify Activators of 5'UTR Stem-Loop Driven Prion Protein mRNA Translation in H4 Neuroglioblastoma Cells. [Related pubchem assays: 1829 (Project Summary), 1814 (Primary HTS)]; type: functional; settings: Homo sapiens
[3] = Luminescence Cell-Based Dose Response HTS to Identify Activators of Luciferase Translation or Activity in H4 […] Cells. [Related pubchem assays: 1829 (Project Summary), 1814 (Primary HTS)]; type: functional
[4] = target: T1, Corticotropin-releasing factor receptor 2/Corticotropin-releasing factor-binding protein (Homo sapiens, UniProt P24387+Q13324); test: activators of CRF receptor 2 with binding protein – uHTS hits, confirmation (AID 602473); type: functional; settings: read-out: EC50_Mean
T1 sequence (Q13324 whole entry): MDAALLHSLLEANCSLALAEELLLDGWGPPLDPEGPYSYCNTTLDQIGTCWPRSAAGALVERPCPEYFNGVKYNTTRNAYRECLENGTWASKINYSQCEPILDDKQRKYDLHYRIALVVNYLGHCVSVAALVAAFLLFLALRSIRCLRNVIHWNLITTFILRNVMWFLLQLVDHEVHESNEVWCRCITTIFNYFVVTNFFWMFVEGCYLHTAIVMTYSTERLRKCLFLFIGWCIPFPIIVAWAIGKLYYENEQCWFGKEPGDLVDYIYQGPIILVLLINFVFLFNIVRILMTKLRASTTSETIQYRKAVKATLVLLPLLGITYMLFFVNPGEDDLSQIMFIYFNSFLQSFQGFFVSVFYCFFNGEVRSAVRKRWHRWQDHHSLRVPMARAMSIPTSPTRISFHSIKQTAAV
T1 sequence (P24387 whole entry): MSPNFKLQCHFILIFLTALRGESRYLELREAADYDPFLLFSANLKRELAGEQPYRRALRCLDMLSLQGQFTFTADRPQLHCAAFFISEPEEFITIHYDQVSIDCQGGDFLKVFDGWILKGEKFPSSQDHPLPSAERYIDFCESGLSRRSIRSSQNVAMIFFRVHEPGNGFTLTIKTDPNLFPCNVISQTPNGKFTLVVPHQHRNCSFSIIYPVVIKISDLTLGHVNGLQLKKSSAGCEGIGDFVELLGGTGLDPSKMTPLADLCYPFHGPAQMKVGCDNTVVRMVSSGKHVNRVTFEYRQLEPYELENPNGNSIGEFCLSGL

[5] = target: T1, Corticotropin-releasing factor receptor 2/Corticotropin-releasing factor-binding protein; test: Dose Response confirmation of uHTS hits for small molecule antagonists of the CRF-binding protein and CRF-R2 receptor complex.; type: functional; settings: read-out: IC50_Mean
[6] = target: T2, RNA-binding protein pos-1 (Caenorhabditis elegans, UniProt G5EF15); test: inhibitors of POS-1/mex-3 RNA binding, dose response, biochemical, fluorescence polarization (AID 1964);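 note: purified POS-1 fused to maltose binding protein made in E. coli; potency of compounds blocking POS-1 binding to fluorescent RNA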
T2 sequence (G5EF15 whole entry): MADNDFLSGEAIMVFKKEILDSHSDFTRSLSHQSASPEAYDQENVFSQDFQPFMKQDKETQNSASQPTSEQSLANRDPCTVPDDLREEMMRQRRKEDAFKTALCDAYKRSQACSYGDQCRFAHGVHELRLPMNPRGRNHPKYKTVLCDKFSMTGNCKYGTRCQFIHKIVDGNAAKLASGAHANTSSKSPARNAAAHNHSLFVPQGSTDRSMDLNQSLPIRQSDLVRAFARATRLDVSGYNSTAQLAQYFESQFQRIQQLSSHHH

[7] = target: T3, Zinc finger protein mex-5 (Caenorhabditis elegans, UniProt Q9XUB2); test: MEX-5/TCR-2 RNA interaction inhibitors, dose response, biochemical, C. elegans, fluorescence polarization (AID 1960)
T3 sequence (Q9XUB2 whole entry): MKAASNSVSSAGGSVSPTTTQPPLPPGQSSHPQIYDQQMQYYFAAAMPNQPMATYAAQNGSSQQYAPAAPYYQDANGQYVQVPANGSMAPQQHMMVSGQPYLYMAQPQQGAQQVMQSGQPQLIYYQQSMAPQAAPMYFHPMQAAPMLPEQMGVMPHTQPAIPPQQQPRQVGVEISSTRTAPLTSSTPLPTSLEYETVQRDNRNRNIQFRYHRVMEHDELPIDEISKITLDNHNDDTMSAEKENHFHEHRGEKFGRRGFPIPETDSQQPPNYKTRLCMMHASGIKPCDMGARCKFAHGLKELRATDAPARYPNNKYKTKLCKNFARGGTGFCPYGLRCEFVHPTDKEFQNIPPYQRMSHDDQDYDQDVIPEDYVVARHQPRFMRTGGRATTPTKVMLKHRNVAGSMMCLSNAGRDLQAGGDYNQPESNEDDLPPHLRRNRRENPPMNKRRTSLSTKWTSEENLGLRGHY

[8] = C. albicans growth with fluconazole, confirmation, fluorescence, retest (AID 2467); type: functional, cell-based
[9] = NIH-3T3 fibroblast cytotoxicity, dose response, cytotoxicity control, cell-based, fluorescence, Alamar Blue, secondary assay (AID 2327); type: functional;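 note: NIH-3T3 mouse fibroblasts cultured with fluconazole at 8 µg/mL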

O=C(c1cn(-c2ccc(Cl)c(Cl)c2)nn1)C1CC1
EC50 [1]: 7.57 µM (active)
EC50 [2]: > 60 µM (not active)
EC50 [3]: 10.6 µM (active)

CCn1ncc(C(=O)Nc2cccc(Cl)c2)c1C
EC50 [1]: 0.244 µM (active)
EC50 [2]: 109 µM (active)
EC50 [3]: 5.61 µM (active)

O=C(Nc1ccc(N2CCCCCC2)cc1)c1ccccc1Cl
EC50 [4]: > 53 µM (inactive)
IC50 [5]: > 47.1 µM (inactive)

N#CCC(N)=C(C#N)C#N
EC50 [6]: 54.9 µM (active)
EC50 [7]: 169 µM (active)

CCOc1ccc2c(c1)=C(NN1C(=O)c3ccccc3C1=O)C(=O)N=2
EC50 [4]: > 53 µM (inactive)
IC50 [5]: > 47.1 µM (inactive)

COc1ccc(-c2cc3ccc(OCC(N)=O)cc3oc2=O)cc1OC
EC50 [6]: > 300 µM (not active)
EC50 [7]: > 300 µM (not active)

Cc1nc2ccc(NC(=O)CCC3CCCC3)cc2s1
EC50 [1]: 10.7 µM (active)
EC50 [2]: 15.2 µM (active)
EC50 [3]: 28.8 µM (active)

CCN1C(=O)C(=C2C=C(C)OC(C)=C2)C(=O)N(CC)C1=S
EC50 [1]: > 120 µM (not active)
EC50 [2]: > 120 µM (not active)
EC50 [3]: > 120 µM (not active)

O=S(=O)(c1cccc(-c2csc(-c3cccnc3)n2)c1)N1CCOCC1
EC50 [6]: > 300 µM (not active)
EC50 [7]: > 300 µM (not active)

CCOC(=O)c1cc(C(=O)OCC)cc(-n2c(C)cc(C(=O)CN3CCOCC3)c2C)c1
EC50 [6]: > 300 µM (not active)
EC50 [7]: > 300 µM (not active)

Cn1c(C(=O)NC2CCCCC2)cc2c(=O)n3ccccc3nc21
EC50 [1]: > 120 µM (not active)
EC50 [2]: 29.3 µM (active)
EC50 [3]: 8.85 µM (active)

CN1/C(=C/C=C(C#N)C#N)C(C)(C)c2ccccc21
EC50 [6]: 248 µM (active)
EC50 [7]: > 300 µM (inconclusive)

CC(C(=O)c1ccccc1)[n+]1cccc(Br)c1 (centres undefined)
EC50 [8]: > 38 µM (not active)
EC50 [9]: > 150 µM (inactive)

COc1ccc(N2C(=O)CC(c3ccc([N+](=O)[O-])cc3)C2=O)cc1 (centres undefined)
EC50 [4]: > 53 µM (inactive)
IC50 [5]: > 47.1 µM (inactive)

Cn1c(SCc2ccccc2F)nnc1-c1cnccn1
EC50 [1]: 0.166 µM (active)
EC50 [2]: 4.22 µM (active)
EC50 [3]: 35.2 µM (active)

O=C(CSc1ccccc1)N(c1ccc(Br)cc1)c1nccs1
EC50 [4]: > 53 µM (inactive)
IC50 [5]: > 47.1 µM (inactive)

CNC(=O)c1c(NC(=O)c2ccc(S(=O)(=O)N3CCCCC3C)cc2)sc2c1CCN(C)C2 (centres undefined)
EC50 [6]: > 300 µM (not active)
EC50 [7]: > 300 µM (not active)

COc1ccc(NC(=O)c2ccc(-c3csc(C)n3)cc2)cc1
EC50 [1]: 3.97 µM (active)
EC50 [2]: > 120 µM (not active)
EC50 [3]: 1.24 µM (active)

COc1cc(NC(=O)CSc2nc3ncnc(N)c3[nH]2)c(C(=O)O)cc1OC
EC50 [6]: 29.2 µM (active)
EC50 [7]: 30.3 µM (active)

N#CC1=C(N)OC2=C(C(=O)CCC2)C1c1ccccc1 (centres undefined)
EC50 [6]: > 300 µM (not active)
EC50 [7]: > 300 µM (not active)

COc1ccc(C2=NCN(c3ccc(C)cc3)C(S)=N2)cc1
EC50 [1]: 6.32 µM (active)
EC50 [2]: 7.4 µM (active)
EC50 [3]: > 120 µM (not active)

O=[N+]([O-])c1ccc2c(c1)C(O)n1nc(-c3ccccc3)nc1S2 (centres undefined)
EC50 [1]: > 120 µM (not active)
EC50 [2]: > 120 µM (not active)
EC50 [3]: > 120 µM (not active)

O=C(NCC1CCCO1)C(c1ccc(F)cc1)N(Cc1ccc(F)cc1)C(=O)Cn1nnc(-c2cccs2)n1 (centres undefined)
EC50 [8]: > 38 µM (not active)
EC50 [9]: > 160 µM (inactive)

COC(=O)c1cc(C)sc1NC(=O)c1cccnc1
EC50 [8]: > 38 µM (not active)
EC50 [9]: 62.4 µM (active)

N#C/C=C1\Sc2ccccc2C(=O)N1CC(=O)N1CCN(S(=O)(=O)c2ccccc2)CC1
EC50 [1]: 13.2 µM (active)
EC50 [2]: 46.7 µM (active)
EC50 [3]: 16 µM (active)

CCn1c(=O)n(CC(=O)N2CCN(c3ccccc3F)CC2)c(=O)c2ccccc21
EC50 [8]: > 38 µM (not active)
EC50 [9]: > 160 µM (inactive)

CCSc1nc2ccccc2n1CC(=O)N1CCCCC1
EC50 [4]: > 53 µM (inactive)
IC50 [5]: > 47.1 µM (inactive)

COc1ccccc1N1CCN(Cc2c(F)cccc2Cl)CC1
EC50 [4]: > 53 µM (inactive)
IC50 [5]: > 47.1 µM (inactive)

CCOc1ccc(/C=C(\C#N)C(=O)NC2CC2)c(OCC)c1
EC50 [4]: > 53 µM (inactive)
IC50 [5]: > 47.1 µM (inactive)

CC(C)NC(=O)CN1C(=O)CSc2ccc(S(=O)(=O)N3CCCC3)cc21
EC50 [4]: > 53 µM (inactive)
IC50 [5]: > 47.1 µM (inactive)

COc1cc(OC)cc(C(=O)Nc2ccc(S(=O)(=O)Nc3cnc4ccccc4n3)cc2)c1
EC50 [4]: > 53 µM (inactive)
IC50 [5]: > 47.1 µM (inactive)

O=[N+]([O-])c1cccc(/C=N/NC2=NCCCCC2)c1
EC50 [4]: > 53 µM (inactive)
IC50 [5]: > 47.1 µM (inactive)
